{
  "source": "patent US20260166029A1",
  "about": "“METHODS AND SYSTEMS FOR TREATING DISEASE USING AN ATR/CHK1 SIGNALING PATHWAY INHIBITOR” (Acrivon Therapeutics, Inc., priority 2022, published 2026)",
  "key": {"A375": {"tested_on": "A375", "assay": "Cell Titer Glo 2.0 relative cell viability, 72 h (Example 10)", "assay_type": "cell-based", "conditions": "Homo sapiens, A-375, A375 cell line, read-out: Abs IC50", "description": "(§1) The present Example provides experimental evidence that cell lines predicted to be sensitive to a Chk1 inhibitor (e.g., prexasertib, are also sensitive to Wee1 inhibitors (e.g., adavosertib (AZD1775, MK1775) and azenosertib (Zn-C3)). Cell lines were treated with increasing doses of either prexasertib, adavosertib, or azenosertib, and relative cell viability against a DMSO control was assessed 72 h after drug treatment using Cell Titer Glo 2.0 (Promega) and a SpectraMax microplate reader. The results are shown in FIGS. 19A-19C. Error bars represent standard deviations from quadruplicate samples."}, "A2780": {"tested_on": "A2780", "assay": "Cell Titer Glo 2.0 relative cell viability, 72 h (Example 10)", "assay_type": "cell-based", "conditions": "Homo sapiens, A2780 cell line, read-out: Abs IC50", "description": "as §1"}, "HeLa": {"tested_on": "HeLa", "assay": "Cell Titer Glo 2.0 relative cell viability, 72 h (Example 10)", "assay_type": "cell-based", "conditions": "Homo sapiens, HeLa cell line, read-out: Abs IC50", "description": "as §1"}, "Head and Neck, SCC": {"tested_on": "Head and Neck, SCC", "conditions": "cited from earlier work"}},
  "data": [
    {"smiles": "COc1cccc(OCCCN)c1-c1cc(Nc2cnc(C#N)cn2)n[nH]1", "note": "[prexasertib, 5-(5-(2-(3-aminopropoxy)-6-methoxyphenyl)-1H-pyrazol-3-ylamino)pyrazine-2-carbonitrile]", "values": [
      {"measurement": "IC50", "setting": "A375", "value": 0.0018, "unit": "µM"},
      {"measurement": "IC50", "setting": "A2780", "value": "> 10", "unit": "µM"},
      {"measurement": "IC50", "setting": "HeLa", "value": 0.015, "unit": "µM"},
      {"measurement": "ORR in trials", "setting": "Head and Neck, SCC", "value": 5, "unit": "%"}
    ]}
  ]
}
